The values that follow come from US20160097044A1, “Antimicrobial Enzyme Fusions Reduce Resistance and Kill Intracellular Staphylococcus aureus” (The United States of America, as Represented by the …, priority 2014, published 2016).

One assay relates to MRSA. As to conditions: systemically delivered, mouse models; cited from earlier work.
Assay [1] relates to MRSA strain NRS382 biofilms. Kind of assay: Dynamic biofilm model, Live/Dead viability. The assay is classed as cell-based, S. aureus. As to conditions: Staphylococcus aureus, 2 h, read-out: viability in dynamic biofilms (percentage of live cells; controls 100%). How it is done:
Biofilms were pre-stained with the Live/Dead stain (see methods) and viewed with 20× magnification. FIG. 9b depicts bacterial viability. Analysis of bacterial viability in NRS382 dynamic biofilms is based on mean fluorescent intensities of the Live/Dead viability stain when exposed to 100 μg/ml of PGH K-L (1.4 μM), K-L-PTD1 (1.4 μM), or vancomycin (69 μM) at a flow rate of 0.5 ml/min for 2 h and compared to PBS. Error bars represent SEM (N=3) of three independent 100×100 pixel squares identically located in each biofilm z-stack. […]
In order to visualize the viability of S. aureus NRS382 biofilms, each chamber of the flow cell was fluorescently labeled by the Live/Dead BacLight™ staining kit (Invitrogen, Carlsbad, Calif.) for one hour. […] To quantify the viability of S. aureus NRS382 biofilms at various time points in the presence of different treatments, one image at the center of z-series (i.e. center of the biofilm) for each time point was selected to represent each treatment group. Three squares representing 100×100 pixels were drawn in each image and the mean intensity of live (green channel) and dead (red channel) cell populations were calculated by Zen 2010 digital imaging software (Carl Zeiss). […] The percentage of live cells remaining in biofilms after various treatments was statistically analyzed by an unpaired t-test.

On to `Cc1onc(-c2ccccc2)c1C(=O)N[C@@H]1C(=O)N2[C@@H]1SC(C)(C)[C@@H]2C(=O)O` [oxacillin], for which, in the assay on MRSA, the “protection from MRSA bacteremia / survival at 48 hours post infection” value is on record as 20%. Usually viability stands for a read-out of living cells in per cent, often relative to untreated cells. As for `CN[C@H](CC(C)C)C(=O)N[C@H]1C(=O)N[C@@H](CC(N)=O)C(=O)N[C@H]2C(=O)N[C@H]3C(=O)N[C@H](C(=O)N[C@H](C(=O)O)c4cc(O)cc(O)c4-c4cc3ccc4O)[C@H](O)c3ccc(c(Cl)c3)Oc3cc2cc(c3O[C@@H]2O[C@H](CO)[C@@H](O)[C@H](O)[C@H]2O[C@H]2C[C@](C)(N)[C@H](O)[C@H](C)O2)Oc2ccc(cc2Cl)[C@H]1O` [vancomycin], the viability at 100 µg/mL in assay [1] was 40%.
